Experimental data reported in patent EP3720857B1, “2-OXO-5H-CHROMENO[4,3-B]PYRIDINES FOR USE IN THE TREATMENT OF HEPATITIS B” (Galapagos NV, priority 2017, dated 2019).

The molecules below were run on hepatitis virus B (HBV) infection (assay: HepG2 NTCP assay (HBcAg staining as marker of HBV infection)). Details: HepG2-NTCP cells infected with HBV, HBV core antigen (HBcAg) as marker of infection.
Assay type: cell-based
How it was run: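 HepG2-NTCP cells were infected with HBV (4% PEG, 1% DMSO) in the presence of compound overnight, then re-dosed and incubated 5 days at 37 °C. HBcAg immunofluorescence was imaged, with DAPI nuclei count taken as toxicity. Ten-point 1/3 dilutions gave % inhibition against 0.2% DMSO vehicle and 100 nM Myrcludex B, with dose-response curves fitted.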

SMILES	IC50 [nM]
COCCCOc1cc2c(cc1F)-c1c(cc(C(=O)O)c(=O)n1C1CC1)C(C(C)C)O2 (stereo not drawn) [Compound 1, 1-cyclopropyl-9-fluoro-5-isopropyl-8-(3-methoxypropoxy)-2-oxo-5H-chromeno[4,3-b]pyridine-3-carboxylic acid]	0.001 to 1
COCCCOc1cc2c(cc1Cl)-c1c(cc(C(=O)O)c(=O)n1C1CC1)CO2 [Compound 6, 9-chloro-1-cyclopropyl-8-(3-methoxypropoxy) -2-oxo-5H-chromeno[4,3-b]pyridine-3-carboxylic acid]	0.001 to 1
CCC1Oc2cc(OCCCOC)c(F)cc2-c2c1cc(C(=O)O)c(=O)n2C1CC1 (stereo not drawn) [Compound 16, 1-cyclopropyl-5-ethyl-9-fluoro-8-(3-methoxypropoxy) -2-oxo-5H-chromeno[4,3-b]pyridine-3-carboxylic acid]	0.001 to 1
COCCCOc1cc2c(cc1Cl)-c1c(cc(C(=O)O)c(=O)n1C1CC1)C(C(C)(C)COC)O2 (stereo not drawn) [Compound 19, 9-chloro-1-cyclopropyl-5-(2-methoxy-1,1-dimethyl-ethyl)-8-(3-methoxypropoxy) -2-oxo-5H-chromeno[4,3-b]pyridine-3-carboxylic acid]	0.001 to 1
COCCCOc1cc2c(cc1F)-c1c(cc(C(=O)O)c(=O)n1C1CC1)[C@H](C(C)C)O2 [Compound 44, (5S)-1-cyclopropyl-9-fluoro-5-isopropyl-8-(3-methoxypropoxy)-2-oxo-5H-chromeno[4,3-b]pyridine-3-carboxylic acid]	0.001 to 1
COCCCOc1cc2c(cc1Cl)-c1c(cc(C(=O)O)c(=O)n1C1CC1)[C@H](C1(C)COC1)O2 [Compound 46, (5R)-9-chloro-1-cyclopropyl-8-(3-methoxypropoxy)-5-(3-methyloxetan-3-yl)-2-oxo-5H-chromeno[4,3-b]pyridine-3-carboxylic acid]	0.001 to 1
